Earlier results, collected in PMC11272821, “Mechanistic safety assessment via multi-omic characterisation of systemic pathway perturbations following in vivo MAT2A inhibition” (Archives of Toxicology, 2024).

Design: method as in Agios Pharmaceuticals, AACR-NCI-EORTC 2019
Conditions: ref Agios Pharmaceuticals, AACR-NCI-EORTC 2019, cited from earlier work

COc1ccc(-c2c(Nc3ccccn3)[nH]c3c(C4=CCCCC4)c(-c4ccccc4)nn3c2=O)cc1 [AG-270]
adverse finding in Phase 1 clinical trial (proposed result of UGT1A1 inhibition): hyperbilirubinemia | dose limiting toxicity in Phase 1 clinical trial: reversible, acute liver injury
